Data published in US20220002314A1 (priority 2018, published 2022).
Where two headings read alike, the source gives them in different places.

Legend:
[1] = molecular target: Human α2δ-1 subunit of Cav2.2 calcium channel (Homo sapiens, UniProt P54289); experiment: biochemical; assay type: binding
[2] = molecular target: Human μ-opioid receptor (Homo sapiens, UniProt P35372); experiment: biochemical; assay type: binding
Human μ-opioid receptor, sequence (P35372 whole entry): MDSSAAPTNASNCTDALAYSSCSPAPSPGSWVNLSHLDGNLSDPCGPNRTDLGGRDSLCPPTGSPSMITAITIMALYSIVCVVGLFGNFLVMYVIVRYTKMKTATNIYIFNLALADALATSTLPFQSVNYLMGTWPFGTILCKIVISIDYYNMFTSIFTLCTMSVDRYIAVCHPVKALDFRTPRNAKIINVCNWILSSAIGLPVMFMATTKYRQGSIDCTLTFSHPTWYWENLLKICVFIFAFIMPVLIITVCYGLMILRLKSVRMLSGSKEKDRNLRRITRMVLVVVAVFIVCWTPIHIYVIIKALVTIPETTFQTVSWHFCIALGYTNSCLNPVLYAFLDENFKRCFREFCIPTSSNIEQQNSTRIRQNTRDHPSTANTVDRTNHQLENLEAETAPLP

Human α2δ-1 subunit of Cav2.2 calcium channel, sequence (P54289 25-1103): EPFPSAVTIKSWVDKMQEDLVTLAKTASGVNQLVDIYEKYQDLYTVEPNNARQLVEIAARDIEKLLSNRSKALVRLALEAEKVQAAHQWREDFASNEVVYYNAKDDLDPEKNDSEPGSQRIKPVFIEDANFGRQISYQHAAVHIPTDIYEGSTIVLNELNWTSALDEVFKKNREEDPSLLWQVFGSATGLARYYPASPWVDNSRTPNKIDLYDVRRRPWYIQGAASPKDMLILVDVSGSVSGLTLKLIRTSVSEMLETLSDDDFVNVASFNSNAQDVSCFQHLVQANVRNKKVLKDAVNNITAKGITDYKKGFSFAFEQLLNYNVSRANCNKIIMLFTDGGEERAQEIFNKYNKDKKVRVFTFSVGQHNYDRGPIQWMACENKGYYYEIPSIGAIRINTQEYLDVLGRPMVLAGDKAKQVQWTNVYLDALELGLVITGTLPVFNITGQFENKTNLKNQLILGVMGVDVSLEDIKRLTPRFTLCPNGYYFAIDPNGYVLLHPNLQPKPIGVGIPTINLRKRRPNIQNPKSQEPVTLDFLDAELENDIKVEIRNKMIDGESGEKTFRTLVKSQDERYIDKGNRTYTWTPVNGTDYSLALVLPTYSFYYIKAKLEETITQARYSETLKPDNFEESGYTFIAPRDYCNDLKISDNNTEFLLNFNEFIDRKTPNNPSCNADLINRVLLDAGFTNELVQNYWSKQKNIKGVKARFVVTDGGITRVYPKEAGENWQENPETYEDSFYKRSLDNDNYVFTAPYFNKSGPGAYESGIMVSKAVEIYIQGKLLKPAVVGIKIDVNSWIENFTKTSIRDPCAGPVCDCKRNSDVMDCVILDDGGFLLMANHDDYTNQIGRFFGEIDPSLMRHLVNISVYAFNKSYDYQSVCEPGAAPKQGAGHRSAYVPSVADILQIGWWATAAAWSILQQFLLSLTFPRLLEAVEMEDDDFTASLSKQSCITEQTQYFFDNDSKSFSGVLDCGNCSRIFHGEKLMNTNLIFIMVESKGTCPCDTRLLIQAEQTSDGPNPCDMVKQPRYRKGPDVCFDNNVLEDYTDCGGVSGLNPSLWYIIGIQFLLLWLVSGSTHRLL

Structure (SMILES) | Ki [1] | Ki [2] | Ki ([1]; read-out: α2δ-1 binding) | Ki ([2]; read-out: μ-binding)
CCCC(c1nc2ccc(OC)cc2c(=O)n1CCOC)N1C[C@@H](C)N[C@@H](C)C1 (stereo partly drawn) [Example 120, 2-(1-((3S,5R)-3,5-dimethylpiperazin-1-yl)butyl)-6-methoxy-3-(2-methoxyethyl)quinazolin-4(3H)-one] | < 500 nM | > 500 nM | – | –
CCC[C@H](c1nc2ccc(F)c(F)c2c(=O)n1C)N1CCN[C@@H](C)C1 [Example 222, 5,6-difluoro-3-methyl-2-((R)-1-((S)-3-methylpiperazin-1-yl)butyl)quinazolin-4(3H)-one] | – | – | 500 to 5000 nM | > 500 nM
CCC[C@H](c1nc2ccc(OC(F)(F)F)cc2c(=O)n1CC)N1CCN[C@@H](C)C1 [Example 204, 3-ethyl-2-((R)-1-((S)-3-methylpiperazin-1-yl)butyl)-6-(trifluoromethoxy)quinazolin-4(3H)-one] | < 500 nM | > 500 nM | – | –
CCC[C@H](c1nc2ccncc2c(=O)n1CC)N1CCN[C@H](C)C1 [Example 64, 3-Ethyl-2-((R)-1-((R)-3-methylpiperazin-1-yl)butyl)pyrido[4,3-d]pyrimidin-4(3H)-one] | < 500 nM | > 500 nM | – | –
CCC[C@H](c1nc2ccc(Cl)cc2c(=O)n1CC)N1CCN[C@H](CF)C1 [Example 229, 6-Chloro-3-ethyl-2-((R)-1-((S)-3-(fluoromethyl)piperazin-1-yl)butyl)quinazolin-4(3H)-one] | < 500 nM | > 500 nM | – | –
CCCC(c1nc2cc(-c3ccnc(CNC)c3)ccc2c(=O)n1C)N1C[C@@H](C)N[C@@H](C)C1 (stereo partly drawn) [Example 136, 2-(1-((3S,5R)-3,5-dimethylpiperazin-1-yl)butyl)-3-methyl-7-(2-((methylamino)methyl)pyridin-4-yl)quinazolin-4(3H)-one] | – | – | 500 to 5000 nM | > 500 nM
CCC[C@H](c1nc2c(F)cc(Cl)cc2c(=O)n1CC)N1CCN[C@@H](C)C1 [Example 217, 6-chloro-3-ethyl-8-fluoro-2-((R)-1-((S)-3-methylpiperazin-1-yl)butyl)quinazolin-4(3H)-one] | < 500 nM | < 100 nM | – | –
CCC[C@H](c1nc2cnc(C(F)(F)F)cc2c(=O)n1CC)N1CCN[C@@H](C)C1 [Example 234, 3-ethyl-2-((R)-1-((S)-3-methylpiperazin-1-yl)butyl)-6-(trifluoromethyl)pyrido[3,4-d]pyrimidin-4(3H)-one] | < 500 nM | > 500 nM | – | –
CCC[C@H](c1nc2ccc(F)cc2c(=O)n1C)N1CCN[C@@H](C)C1 [Example 205, 6-fluoro-3-methyl-2-((R)-1-((S)-3-methylpiperazin-1-yl)butyl)quinazolin-4(3H)-one] | < 500 nM | 100 to 500 nM | – | –
CCC[C@H](c1nc2ccc(Cl)cc2c(=O)n1CC)N1CCN[C@@H](C)C1 [Example 103, 6-Chloro-3-ethyl-2-((R)-1-((S)-3-methylpiperazin-1-yl)butyl)quinazolin-4(3H)-one] | < 500 nM | < 100 nM | – | –
CCC[C@H](c1nc2ccc(Br)cc2c(=O)n1CC)[C@@H]1CCN[C@@H](C)C1 [Example 193, 6-bromo-3-ethyl-2-((S)-1-((2S,4R)-2-methylpiperidin-4-yl)butyl)quinazolin-4(3H)-one] | > 5000 nM | > 500 nM | – | –
CCCC(c1nc2c(Br)cccc2c(=O)n1CC)N1C[C@@H](C)N[C@@H](C)C1 (stereo partly drawn) [Example 13, 8-bromo-2-(1-((3S,5R)-3,5-dimethylpiperazin-1-yl)butyl)-3-ethylquinazolin-4(3H)-one] | > 5000 nM | – | – | > 500 nM
CCCC(c1nc2cc(Br)ccc2c(=O)n1CC)N1C[C@@H](C)N[C@@H](C)C1 (stereo partly drawn) [Example 9, 7-bromo-2-(1-((3S,5R)-3,5-dimethylpiperazin-1-yl)butyl)-3-ethylquinazolin-4(3H)-one] | < 500 nM | > 500 nM | – | –
CCC[C@H](c1nc2ccc(Br)cc2c(=O)n1CC)N1CCN(C)[C@@H](C)C1 [Example 112, 6-bromo-2-((R)-1-((S)-3,4-dimethylpiperazin-1-yl)butyl)-3-ethylquinazolin-4(3H)-one] | 500 to 5000 nM | < 100 nM | – | –
